PMC6469676 (SLAS discovery : advancing life sciences R & D, 2018)

How the values were obtained:
SNV = assay type: cell-based, Sin Nombre virus
in vitro = details: African green monkey
[1] = tested on: SNV^R18 on DAF-functionalized beads; assay type: binding
[2] = tested on: SNV-induced cAMP production in CHO-A24 cells; assay type: cell-based
integrin αIIbβ3 = integrin αIIbβ3 (Homo sapiens, UniProt P05106+P08514); assay type: cell-based
[3] = tested on: SNV^F18 bound to Tanoue B cells; details: read-out: IC50, competition binding vs SNV^F18 bound to Tanoue B cells
Hantaan virus (HTN) = assay type: cell-based; details: 10 µM
Sin Nombre virus (SNV) = assay type: cell-based; details: 10 µM

Sequence of integrin αIIbβ3 (P08514 32-887 limits assumed): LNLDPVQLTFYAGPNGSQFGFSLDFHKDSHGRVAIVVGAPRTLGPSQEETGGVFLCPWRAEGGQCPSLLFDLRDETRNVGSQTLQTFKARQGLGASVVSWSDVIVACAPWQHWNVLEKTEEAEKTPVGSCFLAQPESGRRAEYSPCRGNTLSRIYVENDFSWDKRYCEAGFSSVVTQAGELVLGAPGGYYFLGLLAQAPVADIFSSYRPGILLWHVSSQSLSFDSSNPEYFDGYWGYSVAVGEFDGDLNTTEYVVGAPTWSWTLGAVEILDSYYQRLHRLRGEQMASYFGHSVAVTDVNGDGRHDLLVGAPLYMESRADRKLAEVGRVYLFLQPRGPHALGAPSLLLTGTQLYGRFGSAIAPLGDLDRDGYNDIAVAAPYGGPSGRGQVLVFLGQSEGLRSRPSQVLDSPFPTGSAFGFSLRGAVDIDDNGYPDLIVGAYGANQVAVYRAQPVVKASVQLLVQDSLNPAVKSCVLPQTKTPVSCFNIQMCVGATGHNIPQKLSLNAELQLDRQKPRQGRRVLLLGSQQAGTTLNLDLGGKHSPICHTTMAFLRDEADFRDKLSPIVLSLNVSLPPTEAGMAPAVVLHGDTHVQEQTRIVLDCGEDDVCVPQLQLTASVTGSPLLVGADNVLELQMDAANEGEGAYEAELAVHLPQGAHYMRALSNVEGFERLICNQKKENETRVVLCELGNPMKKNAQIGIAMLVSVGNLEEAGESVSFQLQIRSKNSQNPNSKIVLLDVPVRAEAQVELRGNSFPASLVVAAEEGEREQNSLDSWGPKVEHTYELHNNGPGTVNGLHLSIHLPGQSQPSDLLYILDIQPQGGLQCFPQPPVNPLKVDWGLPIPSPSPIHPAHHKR
Sequence of integrin αIIbβ3 (P08514 891-1039 partner limits assumed): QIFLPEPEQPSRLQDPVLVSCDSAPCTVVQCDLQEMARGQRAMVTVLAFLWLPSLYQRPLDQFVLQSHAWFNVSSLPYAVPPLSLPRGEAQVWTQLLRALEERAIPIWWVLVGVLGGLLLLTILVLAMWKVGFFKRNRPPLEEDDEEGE
Sequence of integrin αIIbβ3 (P05106 27-788): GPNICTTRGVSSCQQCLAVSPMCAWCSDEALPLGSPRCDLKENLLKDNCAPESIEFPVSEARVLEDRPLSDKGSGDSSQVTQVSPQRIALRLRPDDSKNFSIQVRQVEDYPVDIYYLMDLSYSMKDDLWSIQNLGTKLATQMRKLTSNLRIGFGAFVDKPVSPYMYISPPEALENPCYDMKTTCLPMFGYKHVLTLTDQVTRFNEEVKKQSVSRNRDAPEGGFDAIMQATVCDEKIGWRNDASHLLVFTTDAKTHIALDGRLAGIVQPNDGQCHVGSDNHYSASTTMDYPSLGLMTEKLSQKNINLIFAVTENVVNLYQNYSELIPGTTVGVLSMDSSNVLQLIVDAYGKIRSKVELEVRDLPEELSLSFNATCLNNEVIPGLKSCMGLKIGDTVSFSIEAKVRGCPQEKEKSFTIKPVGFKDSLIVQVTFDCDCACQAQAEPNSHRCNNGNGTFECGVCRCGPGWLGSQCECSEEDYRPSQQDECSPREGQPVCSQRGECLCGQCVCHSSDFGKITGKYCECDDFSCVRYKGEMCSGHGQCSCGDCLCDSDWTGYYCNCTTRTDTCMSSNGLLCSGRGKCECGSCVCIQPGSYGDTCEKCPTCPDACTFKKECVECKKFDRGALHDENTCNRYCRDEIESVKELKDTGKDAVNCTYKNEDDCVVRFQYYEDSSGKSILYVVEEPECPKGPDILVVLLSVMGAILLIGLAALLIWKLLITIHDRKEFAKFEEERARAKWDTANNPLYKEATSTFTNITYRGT

O=C(Nc1cc(C(=O)Nc2ccc(S(=O)(=O)O)cc2S(=O)(=O)O)cc(C(=O)Nc2ccc(S(=O)(=O)O)cc2S(=O)(=O)O)c1)Nc1cc(C(=O)Nc2ccc(S(=O)(=O)O)cc2S(=O)(=O)O)cc(C(=O)Nc2ccc(S(=O)(=O)O)cc2S(=O)(=O)O)c1 [NF449]
reduction of viral N-protein relative to vehicle-treated cells (SNV): > 80%

COC(=O)Nc1nc2ccc(Sc3ccccc3)cc2[nH]1 [fenbendazole]
viability (in vitro): ~70%

Cc1cc2c(C(C)C)c(O)c(O)c(C=O)c2c(O)c1-c1c(C)cc2c(C(C)C)c(O)c(O)c(C=O)c2c1O [gossypol]
koff, drop in bead fluorescence [1]: ~ 0.25
viability (in vitro): ~30%

O=C(Nc1ccc([N+](=O)[O-])cc1Cl)c1cc(Cl)ccc1O [niclosamide]
viability (in vitro): ~50%

Cc1c(Cl)cccc1Nc1ccccc1C(=O)O [tolfenamic acid]
koff, drop in bead fluorescence [1]: ~ 0.25

GRGDSP
effect on SNV-stimulated cAMP [2]: did not affect SNV-stimulated cAMP response
effect on SNV-induced PAC-1 staining (integrin αIIbβ3): inhibited PAC1 staining

antimycin
IC50 [3]: 10 µM
% inhibition of infection by HTN (Hantaan virus (HTN)): ≥ 80%
cytopathic effects after 24 hours (Vero E6 cells): minimal cytopathic effects
koff, drop in bead fluorescence [1]: ~ 0.25
effect on SNV-stimulated cAMP [2]: inhibited stimulation of cAMP
% inhibition of infection by SNV (Sin Nombre virus (SNV)): ≥ 80%
effect on SNV-induced PAC-1 staining (integrin αIIbβ3): inhibited PAC-1 staining

tocopherol
cytopathic effects after 24 hours (Vero E6 cells): minimal cytopathic effects
